This is an account of results in publication PMC6627469 (Journal of Medicinal Chemistry, 2019).

Entries after “also recorded” stand apart in the source; their conditions may differ.

The test system of assay [1] is Influenza A virus WU95 (containing a H3 protein of a human H3N2 virus). It is filed as binding.
For the next assay, the system named is H3-containg WU95 virus. Kind of assay: Hemagglutination inhibition. It is filed as cell-based, Influenza A virus. The following applies: relative to the potency of 8, corrected for valency.
The subject of another assay is IAV WU95. It is filed as cell-based, Influenza A virus.

For `CC(=O)N[C@H]1[C@H]([C@H](O)[C@H](O)CO)O[C@@](OC[C@H]2O[C@@H](O[C@H]3[C@H](O)[C@@H](O)[C@H](OCc4cn(CCCC(=O)Nc5cccc(-c6cc(-c7cccc(NC(=O)CCCn8cc(CO[C@@H]9O[C@H](CO)[C@@H](O[C@@H]%10O[C@H](CO[C@]%11(C(=O)O)C[C@H](O)[C@@H](NC(C)=O)[C@H]([C@H](O)[C@H](O)CO)O%11)[C@H](O)[C@H](O)[C@H]%10O)[C@H](O)[C@H]9O)nn8)c7)cc(-c7cccc(NC(=O)CCCn8cc(CO[C@@H]9O[C@H](CO)[C@@H](O[C@@H]%10O[C@H](CO[C@]%11(C(=O)O)C[C@H](O)[C@@H](NC(C)=O)[C@H]([C@H](O)[C@H](O)CO)O%11)[C@H](O)[C@H](O)[C@H]%10O)[C@H](O)[C@H]9O)nn8)c7)c6)c5)nn4)O[C@@H]3CO)[C@H](O)[C@@H](O)[C@H]2O)(C(=O)O)C[C@@H]1O` [Compound 10], in assay [1], the “rel pot. (BLI)” value is 20 (7) and the “rel pot. per sugar (BLI)” value is recorded as 20 (7). In addition, the “rel pot. per sugar (HAI)” value in the assay with H3-containg WU95 virus is reported as 2.

Take `CC(=O)N[C@H]1[C@H]([C@H](O)[C@H](O)CO)O[C@@](OC[C@H]2O[C@@H](O[C@H]3[C@H](O)[C@@H](O)[C@H](OCc4cn([C@@H]5O[C@H](CO)[C@@H](n6cc(-c7ccc(-c8cn([C@H]9[C@H](O)[C@@H](O)[C@H](n%10cc(CO[C@@H]%11O[C@H](CO)[C@@H](O[C@@H]%12O[C@H](CO[C@]%13(C(=O)O)C[C@H](O)[C@@H](NC(C)=O)[C@H]([C@H](O)[C@H](O)CO)O%13)[C@H](O)[C@H](O)[C@H]%12O)[C@H](O)[C@H]%11O)nn%10)O[C@@H]9CO)nn8)cc7)nn6)[C@H](O)[C@H]5O)nn4)O[C@@H]3CO)[C@H](O)[C@@H](O)[C@H]2O)(C(=O)O)C[C@@H]1O` [Compound 17]: in assay [1], the “rel pot. (BLI)” value is listed as 23 (12) and the “rel pot. per sugar (BLI)” value is on record as 23 (12).

`CC(=O)N[C@H]1[C@H](O[C@H]2[C@@H](O)[C@@H](CO)O[C@@H](O[C@H]3[C@H](O)[C@@H](O)[C@H](n4cc(-c5ccc(-c6cn(CCCC(=O)Nc7cccc(-c8cc(-c9cccc(NC(=O)CCCn%10cc(-c%11ccc(-c%12cn([C@@H]%13O[C@H](CO)[C@@H](O[C@@H]%14O[C@H](CO)[C@H](O)[C@H](O[C@@H]%15O[C@H](CO)[C@@H](O[C@@H]%16O[C@H](CO)[C@H](O)[C@H](O)[C@H]%16O)[C@H](O)[C@H]%15NC(C)=O)[C@H]%14O)[C@H](O)[C@H]%13O)nn%12)cc%11)nn%10)c9)cc(-c9cccc(NC(=O)CCCn%10cc(-c%11ccc(-c%12cn([C@@H]%13O[C@H](CO)[C@@H](O[C@@H]%14O[C@H](CO)[C@H](O)[C@H](O[C@@H]%15O[C@H](CO)[C@@H](O[C@@H]%16O[C@H](CO)[C@H](O)[C@H](O)[C@H]%16O)[C@H](O)[C@H]%15NC(C)=O)[C@H]%14O)[C@H](O)[C@H]%13O)nn%12)cc%11)nn%10)c9)c8)c7)nn6)cc5)nn4)O[C@@H]3CO)[C@@H]2O)O[C@H](CO)[C@@H](O[C@@H]2O[C@H](CO)[C@H](O)[C@H](O)[C@H]2O)[C@@H]1O` [Compound 13]: the “IC50 BLI” value in assay [1] is “did not yield any detectable inhibition in the assay up to the 20 μM; also recorded: no inhib at 20 μM”. In the case of `CCC(CC)O[C@@H]1C=C(C(=O)O)C[C@H](N)[C@H]1NC(C)=O` [oseltamivir carboxylate], the “effect on infection, single agent” value with IAV WU95 is reported as “little effect”. For `C#CCO[C@@H]1O[C@H](CO)[C@@H](O[C@@H]2O[C@H](CO[C@]3(C(=O)O)C[C@H](O)[C@@H](NC(C)=O)[C@H]([C@H](O)[C@H](O)CO)O3)[C@H](O)[C@H](O)[C@H]2O)[C@H](O)[C@H]1NC(C)=O` [Compound 7], in assay [1], the “rel pot. (BLI)” value is reported as 1 (1) and the “rel pot. per sugar (BLI)” value is 1 (1).
